Molecular target: T1, His-hMAGL (recombinant polyhistidine tagged human MAGL protein) (Homo sapiens, UniProt Q99685)
T1 construct: polyhistidine (His) (N); made in house; host or cells: E. coli BL21(DE3)
T1 sequence (Q99685 1-303): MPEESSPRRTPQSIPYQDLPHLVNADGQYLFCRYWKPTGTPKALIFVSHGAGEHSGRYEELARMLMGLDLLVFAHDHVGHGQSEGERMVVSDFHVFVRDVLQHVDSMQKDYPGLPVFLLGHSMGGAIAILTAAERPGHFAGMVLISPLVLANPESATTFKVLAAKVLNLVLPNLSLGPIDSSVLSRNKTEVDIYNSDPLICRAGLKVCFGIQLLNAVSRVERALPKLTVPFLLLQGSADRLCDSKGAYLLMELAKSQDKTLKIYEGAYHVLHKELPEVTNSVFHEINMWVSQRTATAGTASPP
Test: Measurement of MAGL inhibitory activity (RapidFire-mass spectrometry of arachidonic acid produced from 2-arachidonylglycerol)
Assay type: biochemical
Conditions: test compound 10 μM, His-hMAGL, substrate 2-arachidonylglycerol, 60 min preincubation; for inhibition at 10 µM: read-out: % inhibition (10 μM)
Description: Furthermore, acetonitrile (50 μL) containing 3 μM arachidonic acid-d8 (Cayman Chemical Company) was added and the mixture was stirred.
The amount of arachidonic acid in the obtained enzyme reaction mixture was calculated by measuring by RapidFire-mass spectrometry and correcting by the amount of arachidonic acid-d8. High Throughput online solid phase extraction was performed using RapidFire 300™ system (Agilent Technologies, Inc.). Samples were loaded on SPE C4 cartridge (Agilent Technologies, Inc.) and desalted with 0.2 (v/v) % acetic acid (Wako Pure Chemical Industries, Ltd.) in ultrapure water/acetonitrile (70/30, v/v) at a flow rate of 1.5 mL/min, eluted at a flow rate of 0.5 mL/min with 0.2(v/v) % acetic acid dissolved in acetonitrile/ultrapure water (90/10, v/v), and injected into the mass spectrometry part. The injection needle was washed with ultrapure water (500 millisecond) and acetonitrile (500 millisecond) to minimize carry-over. […] The RapidFire300 system was controlled by RapidFire UI software version 3.6 (Agilent Technologies, Inc.).
The mass spectrometry of the resultant product was performed using API4000™ triple quadrupole mass spectrometer (AB SCIEX) equipped with an electrospray ion source (TurboIon Spray™) in a negative selected reaction monitoring (SRM) mode. The conditions of SRM are shown below. The parameters of the instrument were optimized as follows: capillary temperature 600° C., ion spray voltage −4.5 kV, collision gas 8, curtain gas 15 psi, ion source gas 1 60 psi, ion source gas 2 60 psi. The mass spectrometer was controlled by Analyst™ software version 1.5.1 (AB SCIEX). The peak area integration was analyzed using RapidFire integrator software version 3.6 (Agilent Technologies, Inc.).
MAGL inhibitory rate (%) was calculated according to the following calculation formula. (1-(arachidonic acid production amount of test compound addition group−arachidonic acid production amount of enzyme-free group)÷(arachidonic acid production amount of test compound-free group−arachidonic acid production amount of enzyme-free group))×100

| inhibition at 10 µM [%] | Compound | other results |
| --- | --- | --- |
| 101 | CC1(C2CCN(C(=O)[C@H]3C[C@]4(COC(=O)N4)C3)CC2)Cc2cc(C(F)(F)F)ccc2O1 (stereo partly shown) [Example 53, (2s,4s)-2-((4-(2-methyl-5-(trifluoromethyl)-2,3-dihydro-1-benzofuran-2-yl)piperidin-1-yl)carbonyl)-7-oxa-5-azaspiro[3.4]octan-6-one] | – |
| 100 | O=C1N[C@]2(CO1)C[C@H](C(=O)N1CCC(C3(C(F)(F)F)Cc4cc(F)ccc4O3)CC1)C2 (stereo partly shown) [Example 58, (2s,4s)-2-((4-(5-fluoro-2-(trifluoromethyl)-2,3-dihydro-1-benzofuran-2-yl)piperidin-1-yl)carbonyl)-7-oxa-5-azaspiro[3.4]octan-6-one] | – |
| 100 | CC(Oc1ccc(F)cc1C(F)(F)F)C1CCN(C(=O)[C@H]2C[C@]3(COC(=O)N3)C2)CC1 (stereo partly shown) [Example 59, (2s,4s)-2-((4-(1-(4-fluoro-2-(trifluoromethyl)phenoxy)ethyl)piperidin-1-yl)carbonyl)-7-oxa-5-azaspiro[3.4]octan-6-one] | – |
| 100 | O=C1N[C@]2(CO1)C[C@H](C(=O)N1CCC3(CC1)CC(Oc1ccc(F)cc1Cl)C3)C2 [Example 62, (2s,4s)-2-((2-(2-chloro-4-fluorophenoxy)-7-azaspiro[3.5]non-7-yl)carbonyl)-7-oxa-5-azaspiro[3.4]octan-6-one] | – |
| 100 | CC1(C2CCN(C(=O)[C@H]3C[C@]4(COC(=O)N4)C3)CC2)Cc2ccc(C(F)(F)F)cc2O1 (stereo partly shown) [Example 63, (2s,4s)-2-((4-(2-methyl-6-(trifluoromethyl)-2,3-dihydro-1-benzofuran-2-yl)piperidin-1-yl)carbonyl)-7-oxa-5-azaspiro[3.4]octan-6-one] | – |
| 101 | O=C1N[C@]2(CO1)C[C@H](C(=O)N1CCC(COc3ccc(CCF)cc3F)CC1)C2 [Example 64, (2s,4s)-2-((4-((2-fluoro-4-(2-fluoroethyl)phenoxy)methyl)piperidin-1-yl)carbonyl)-7-oxa-5-azaspiro[3.4]octan-6-one] | – |
| 101 | O=C1N[C@]2(CO1)C[C@H](C(=O)N1CC(COc3cc(C4CC4)c(C(F)(F)F)cc3F)C1)C2 [Example 65, (2s,4s)-2-((3-((5-cyclopropyl-2-fluoro-4-(trifluoromethyl)phenoxy)methyl)azetidin-1-yl)carbonyl)-7-oxa-5-azaspiro[3.4]octan-6-one] | – |

Continued, compound first:

| Compound | inhibition at 10 µM [%] | other results |
| --- | --- | --- |
| CC(Oc1c(F)ccc(F)c1F)C1CCN(C(=O)[C@H]2C[C@]3(COC(=O)N3)C2)CC1 (stereo partly shown) [Example 36, (2s,4s)-2-((4-(1-(2,3,6-trifluorophenoxy)ethyl)piperidin-1-yl)carbonyl)-7-oxa-5-azaspiro[3.4]octan-6-one] | 101 | – |
| CC(Oc1cc(F)c(F)cc1F)C1CCN(C(=O)[C@H]2C[C@]3(COC(=O)N3)C2)CC1 (stereo partly shown) [Example 40, (2s,4s)-2-((4-(1-(2,4,5-trifluorophenoxy)ethyl)piperidin-1-yl)carbonyl)-7-oxa-5-azaspiro[3.4]octan-6-one] | 101 | – |
| O=C1N[C@]2(CO1)C[C@H](C(=O)N1CC(COc3cc(Br)c(C(F)(F)F)cc3F)C1)C2 [Example 41, (2s,4s)-2-((3-((5-bromo-2-fluoro-4-(trifluoromethyl)phenoxy)methyl)azetidin-1-yl)carbonyl)-7-oxa-5-azaspiro[3.4]octan-6-one] | 101 | – |
| CCC1(COc2ccc(F)cc2Cl)CCN(C(=O)[C@H]2C[C@]3(COC(=O)N3)C2)CC1 [Example 44, (2s,4s)-2-((4-((2-chloro-4-fluorophenoxy)methyl)-4-ethylpiperidin-1-yl)carbonyl)-7-oxa-5-azaspiro[3.4]octan-6-one] | 101 | – |
| Cc1ccc(OC(C)C2CCN(C(=O)[C@H]3C[C@]4(COC(=O)N4)C3)CC2)c(F)c1 (stereo partly shown) [Example 45, (2s,4s)-2-((4-(1-(2-fluoro-4-methylphenoxy)ethyl)piperidin-1-yl)carbonyl)-7-oxa-5-azaspiro[3.4]octan-6-one] | – | % inhibition (10 μM): 100% |
| Cc1ccc(OC(C)C2CCN(C(=O)[C@H]3C[C@]4(COC(=O)N4)C3)CC2)c(F)c1 (stereo partly shown) [Example 46, (2s,4s)-2-((4-(1-(2-fluoro-4-methylphenoxy)ethyl)piperidin-1-yl)carbonyl)-7-oxa-5-azaspiro[3.4]octan-6-one] | – | % inhibition (10 μM): 100% |
| CC(Oc1ccc(C2CC2)cc1F)C1CCN(C(=O)[C@H]2C[C@]3(COC(=O)N3)C2)CC1 (stereo partly shown) [Example 47, (2s,4s)-2-((4-(1-(4-cychopropyl-2-fluorophenoxy)ethyl)piperidin-1-yl)carbonyl)-7-oxa-5-azaspiro[3.4]octan-6-one] | 100 | – |
| O=C1N[C@]2(CO1)C[C@H](C(=O)N1CCC(COc3ccc(F)cc3Cl)(C(F)(F)F)CC1)C2 [Example 48, (2s,4s)-2-((4-((2-chloro-4-fluorophenoxy)methyl)-4-(trifluoromethyl)piperidin-1-yl)carbonyl)-7-oxa-5-azaspiro[3.4]octan-6-one] | 100 | – |
| O=C1N[C@]2(CO1)C[C@H](C(=O)N1CCC(COc3ccc(N4CC(F)C4)cc3Cl)CC1)C2 [Example 49, (2s,4s)-2-((4-((2-chroro-4-(3-fluoroazetidin-1-yl)phenoxy)methyl)piperidin-1-yl)carbonyl)-7-oxa-5-azaspiro[3.4]octan-6-one] | 101 | – |
| O=C1N[C@]2(CO1)C[C@H](C(=O)N1CCC(C(c3ccccc3)c3ccccc3)CC1)C2 [Example 50, (2s,4s)-2-((4-(diphenylmethyl)piperidin-1-yl)carbonyl)-7-oxa-5-azaspiro[3.4]octan-6-one] | 101 | – |
| CC(c1ccccc1)(c1ccccc1)C1CCN(C(=O)[C@H]2C[C@]3(COC(=O)N3)C2)CC1 [Example 51, (2s,4s)-2-((4-(1,1-diphenylethyl)piperidin-1-yl)carbonyl)-7-oxa-5-azaspiro[3.4]octan-6-one] | 101 | – |
| CC1(C(F)(F)c2ccc(F)cc2Cl)CCN(C(=O)[C@H]2C[C@]3(COC(=O)N3)C2)CC1 [Example 52, (2s,4s)-2-((4-((2-chloro-4-fluorophenyl)(difluoro)methyl)-4-methylpiperidin-1-yl)carbonyl)-7-oxa-5-azaspiro[3.4]octan-6-one] | 100 | – |
| CC(Oc1cc(F)c(F)cc1F)C1CCN(C(=O)[C@H]2C[C@]3(COC(=O)N3)C2)CC1 (stereo partly shown) [Example 54, (2s,4s)-2-((4-(1-(2,4,5-trifluorophenoxy)ethyl)piperidin-1-yl)carbonyl)-7-oxa-5-azaspiro[3.4]octan-6-one] | – | % inhibition (10 μM) (10 µM): 101% |
| CC(Oc1cc(F)c(F)cc1F)C1CCN(C(=O)[C@H]2C[C@]3(COC(=O)N3)C2)CC1 (stereo partly shown) [Example 55, (2s,4s)-2-((4-(1-(2,4,5-trifluorophenoxy)ethyl)piperidin-1-yl)carbonyl)-7-oxa-5-azaspiro[3.4]octan-6-one] | – | % inhibition (10 μM) (10 µM): 100% |
| CC(Oc1c(F)ccc(F)c1F)C1CCN(C(=O)[C@H]2C[C@]3(COC(=O)N3)C2)CC1 (stereo partly shown) [Example 56, (2s,4s)-2-((4-(1-(2,3,6-trifluorophenoxy)ethyl)piperidin-1-yl)carbonyl)-7-oxa-5-azaspiro[3.4]octan-6-one] | – | % inhibition (10 μM) (10 µM): 100% |
| CC(Oc1c(F)ccc(F)c1F)C1CCN(C(=O)[C@H]2C[C@]3(COC(=O)N3)C2)CC1 (stereo partly shown) [Example 57, (2s,4s)-2-((4-(1-(2,3,6-trifluorophenoxy)ethyl)piperidin-1-yl)carbonyl)-7-oxa-5-azaspiro[3.4]octan-6-one] | – | % inhibition (10 μM) (10 µM): 100% |
| CC(Oc1ccc(F)cc1C(F)(F)F)C1CCN(C(=O)[C@H]2C[C@]3(COC(=O)N3)C2)CC1 (stereo partly shown) [Example 66, (2s,4s)-2-((4-(1-(4-fluoro-2-(trifluoromethyl)phenoxy)ethyl)piperidin-1-yl)carbonyl)-7-oxa-5-azaspiro[3.4]octan-6-one] | – | % inhibition (10 μM): 100% |
| CC(Oc1ccc(F)cc1C(F)(F)F)C1CCN(C(=O)[C@H]2C[C@]3(COC(=O)N3)C2)CC1 (stereo partly shown) [Example 67, (2s,4s)-2-((4-(1-(4-fluoro-2-(trifluoromethyl)phenoxy)ethyl)piperidin-1-yl)carbonyl)-7-oxa-5-azaspiro[3.4]octan-6-one] | – | % inhibition (10 μM): 100% |

From patent publication US10323026B2, “Heterocyclic compound” (Takeda Pharmaceutical Company Limited, priority 2016, dated 2019)
